In one data set the test system is Trichophyton asteroides. In words: Antimycotic test against Trichophyton asteroides (in vitro, Sabouraud's dextrose broth). The format is cell-based. To be noted: read-out: Minimum Inhibitory Concentration (MIC). An excerpt: Sabouraud's dextrose broth* was used as culture medium.
Data set [1] relates to Candida albicans KE-2. Briefly: Test on inhibition against formation of the pseudohyphae in Candida albicans. Type of data set: cell-based. The following applies: KE2; Candida albicans KE-2, 1×10^6 cells/ml, Eagle broth + 20% bovine serum, 37° C., 18 hours; read-out: Inhibitory concentration against pseudohyphae formation. The method, then: To Eagle MEN broth (Nissan 2, Nissui Seiyaku Co., Ltd.) was added 20% bovine serum and inoculated Candida albicans KE-2 yeast cells at rate of 1×10^6 cells/ml (final inoculum size), and each test compound was added thereto in two-fold serial dilution method. After termination of cultivation at 37° C. for 18 hours, each organism of the serial dilution was smeared and fixed on a slide glass and stained by Giemsa's staining, and occurrence of the pseudohyphae was observed under a microscope. Minimum concentration which could inhibit the formation of pseudohyphae was regarded as the inhibitory concentration of the compound against pseudohyphae formation.

Data set [2] deals with Candida albicans KE-2. In words: Therapeutic effect against experimental candidasis in mice. Type of data set: in vivo, Jcl-ICR female mice. To be noted: 15th day from infection; 25 mg/Kg oral, twice per day for 5 days; 5×10^5 Candida albicans KE-2 cells i.v.; eight mice; control 0. The method, then: Candida albicans KE-2 was cultured in a Sabouraud's dextrose agar at 28° C. for 48 hours, and the resulting culture was suspended in the Sabouraud's dextrose broth. The resulting cells (5×10^5) were intravenously administered at the tail of Jcl-ICR female mice (4 weeks age, body weight: 18-20 g). Each test compound suspended in 2% gum-arabic was orally administered at a dose of 25 mg/Kg twice per day for 5 days; on the first day, the test compound is administered twice, i.e., immediately after the infection and 2 hours later; on the second day or later, 24 hours after the administration of the previous day respectively. After the infection, no test compound was administered to a control group. Eight mice were employed in the control group and the test groups to which the test compound was administered The therapuetic effect was evaluated on the survival rate at the 15th day from the day of infection; the result is shown below.

For data set [3] the following is noted: in vivo, po; cited from earlier work.

Values after ≈ are worked out from the molar mass of the structure shown.

Consider `CCCC1OC(=O)OC1(Cn1cncn1)c1ccc(Cl)cc1Cl` (stereo not shown) [Compound 12], for which the MIC with Trichophyton asteroides was found to be 1.6 µg/mL (≈ 4.49 µM).

Regarding `Cc1ccc(C2OC(=O)OC2(Cn2cncn2)c2ccccc2Cl)cc1` (stereo not shown) [Compound 15], the minimal effective concentration with Candida albicans KE-2 [1] stood at 0.63 µg/mL. The MIC in the data set with Trichophyton asteroides is 3.1 µg/mL (≈ 8.38 µM).

For the compound `O=C1OC(c2ccccc2)C(Cn2ccnc2)(c2ccc(Cl)cc2Cl)O1` (stereo not shown) [Compound 23], in the data set with Candida albicans KE-2 [1], the minimal effective concentration was determined as 0.16 µg/mL. Also, in the data set with Trichophyton asteroides, the MIC turned out to be 0.1 µg/mL (≈ 0.257 µM).

With `O=C1OC(c2ccccc2)C(Cn2cncn2)(c2ccc(Cl)cc2Cl)O1` (stereo not shown) [Compound 3], the MIC in the data set with Trichophyton asteroides amounted to 0.1 µg/mL (≈ 0.256 µM).

As for `Fc1ccc(C2OCOC2(Cn2cncn2)c2ccc(Cl)cc2Cl)cc1` (stereo not shown) [Compound 34], the minimal effective concentration in the data set with Candida albicans KE-2 [1] came out at 0.31 µg/mL. Further, the MIC in the data set with Trichophyton asteroides is 0.1 µg/mL (≈ 0.254 µM).

As for `O=C1OC(c2ccccc2Cl)C(Cn2cncn2)(c2ccccc2Cl)O1` (stereo not shown) [Compound 7], in the data set with Candida albicans KE-2 [1], the minimal effective concentration was found to be 0.31 µg/mL.

In the case of `CC(C)C1OC(=O)OC1(Cn1cncn1)c1ccc(Cl)cc1Cl` (stereo not shown) [Compound 2], the minimal effective concentration in the data set on Candida albicans KE-2 [1] stood at 0.63 µg/mL. The compound also returned a Survival rate with Candida albicans KE-2 [2] of 100%. For the same compound, in the data set on Trichophyton asteroides, the MIC amounted to 3.1 µg/mL (≈ 8.7 µM).

Regarding `Cc1ccc(C2OC(=O)OC2(Cn2cncn2)c2ccc(C)cc2)cc1` (stereo not shown) [Compound 11], the minimal effective concentration with Candida albicans KE-2 [1] turned out to be 1.25 µg/mL.

With `O=C1OC(c2ccc(Cl)cc2Cl)C(Cn2cncn2)(c2ccc(Cl)cc2)O1` (stereo not shown) [Compound 5], the minimal effective concentration in the data set on Candida albicans KE-2 [1] stood at 0.63 µg/mL. The Survival rate with Candida albicans KE-2 [2] amounted to 100%.

`CC1(C)OC(c2ccc(Cl)cc2Cl)C(Cn2cncn2)(c2ccc(Cl)cc2)O1` (stereo not shown) [Compound 39, 4-(4-chlorophenyl)-5-(2,4-dichlorophenyl)-2,2-dimethyl-4-(1H-1,2,4-triazol-1-yl)methyl-1,3-dioxolane]: the minimal effective concentration in the data set on Candida albicans KE-2 [1] stood at 5 µg/mL. In addition, the MIC in the data set on Trichophyton asteroides amounted to 0.8 µg/mL (≈ 1.82 µM).

`CCCCC1OC(=O)OC1(Cn1cncn1)c1ccc(Cl)cc1Cl` (stereo not shown) [Compound 4]: in the data set on Trichophyton asteroides, the MIC was 0.2 µg/mL (≈ 0.54 µM).

On to `CCCC1OCOC1(Cn1cncn1)c1ccc(Cl)cc1` (stereo not shown) [Compound 33], for which the minimal effective concentration with Candida albicans KE-2 [1] is 0.16 µg/mL. Also, the MIC with Trichophyton asteroides amounted to 0.2 µg/mL (≈ 0.65 µM).

On to `CC(=O)N1CCN(c2ccc(OCC3COC(Cn4ccnc4)(c4ccc(Cl)cc4Cl)O3)cc2)CC1` (stereo not shown) [Ketoconazole], for which, in data set [3], the adverse reactions result was “hepatic dysfunction”.

For the compound `O=C1OC(c2ccc(F)cc2)C(Cn2cncn2)(c2ccc(F)cc2)O1` (stereo not shown) [Compound 8], in the data set on Trichophyton asteroides, the MIC was 3.1 µg/mL (≈ 8.68 µM).

With `O=S1OC(c2ccc(Cl)cc2Cl)C(Cn2cncn2)(c2ccc(Cl)cc2)O1` (single isomer, unassigned) [Compound 27B], the minimal effective concentration with Candida albicans KE-2 [1] came to 0.02 µg/mL. This compound also displayed a Survival rate in the data set on Candida albicans KE-2 [2] of 75%. Further, the MIC with Trichophyton asteroides is 0.1 µg/mL (≈ 0.225 µM).

With `O=C1OC(c2ccc(Cl)cc2)C(Cn2cncn2)(c2ccc(Cl)cc2Cl)O1` (single isomer, unassigned) [Compound 19], in the data set with Candida albicans KE-2 [1], the minimal effective concentration was 0.04 µg/mL. The same compound gave a Survival rate with Candida albicans KE-2 [2] of 86%. The MIC in the data set on Trichophyton asteroides amounted to 0.2 µg/mL (≈ 0.471 µM).

Regarding `O=C1OC(c2ccc(F)cc2)C(Cn2cncn2)(c2ccc(Cl)cc2Cl)O1` (stereo not shown) [Compound 1, 4-(2,4-dichlorophenyl)-5-(4-fluorophenyl)-2-oxo-4-(1H-1,2,4-triazol-1-yl)methyl-1,3-dioxolane], the minimal effective concentration in the data set with Candida albicans KE-2 [1] came to 0.31 µg/mL. Besides, the Survival rate in the data set on Candida albicans KE-2 [2] was determined as 87.5%. The MIC in the data set on Trichophyton asteroides was found to be 0.1 µg/mL (≈ 0.245 µM).

The values above are taken from patent publication US4612322A, “Azole type dioxolane derivatives” (Shionogi & Co., Ltd., priority 1983, dated 1986).
